Assay results taken from patent publication USRE38424E1 (The United States of America as represented by the …, priority 1994, dated 2004).
Values joined by “and” are separate entries in the source; they are usually repeats but may differ in a detail not shown here. Equal entries are not always repeated. Where two headings read alike, the source gives them in different places.

What was measured:
[1] = test system: epithelial ovarian cancer; assay: Phase I taxol dose escalation with G-CSF support: disease response; assay type: in vivo, human
Method: Patients with histologically proven epithelial ovarian cancer with bidimensionally measurable disease were candidates for the study.
All patients received subsequent cycles of therapy on the general medical oncology in-patient ward.
A G-CSF dose of 10 μg/kg/day was used. […] This was determined by checking WBC and platelet counts on a twice weekly basis.
Patients who had normalization of serum CA-125 levels and complete resolution of all assessable disease confirmed at peritoneoscopy Were assessed as having a clinical complete response to therapy (CCR). A partial response (PR) was designated for individuals experiencing a greater than 50% reduction in the sum of the products of the greatest perpendicular diameters of all measurable lesions that lasted at least one month. A minor response (MR) was defined as a greater than 25% but less than 50% reduction in the sum of the products of the greatest perpendicular diameters of all measurable lesions lasting at least one month. Patients with a less than 25% reduction in tumor volume after two cycles of therapy were considered to be nonresponders and were taken off therapy. Patients who experienced greater than 25% reduction in tumor volume and/or a more than 50% reduction in CA-125 level received two cycles beyond maximal response. Patients with CCR received two cycles beyond peritoneoscopy.

[2] = test system: ovarian cancer; assay: Published studies of taxol without G-CSF: response rate; assay type: in vivo, human; settings: 33 of 110 patients
From the text: This agent is derived from the bark of the Western Yew tree, taxus brevifolia (Chabner, PPO Update, 5 (9), 1-10 (1991); Rowinsky et al., J. Nat'Cancer Inst., 82, 1247-1259 (1990)).

[3] = From the text: A total of 47 patients were included in this study. All patients had recurrent advanced stage epithelial ovarian cancer confirmed on histologic review at the Laboratory of Pathology, National Cancer Institute (NCI). Borderline, mixed, and germ cell histologies were excluded.
Pretreatment evaluation consisted of a physical examination, laboratory studies with CA-125, radiographic evaluation by CT scan, baseline electromyogram with nerve conduction velocity studies (EMG/NCV), creatinine clearance, chest radiograph, and EKG. On-study staging was completed within two weeks of starting therapy. Physical examination and laboratory evaluations were repeated with every cycle, except for CBC which was evaluated twice weekly. Patients underwent restaging every two cycles (i.e., every 6 weeks), which included the repetition of any radiographic studies that were abnormal upon entry. EMG/NCV studies were repeated as indicated to determine the presence of any progressive neurologic toxicity.
The G-CSF was supplied to the Division of Cancer Treatment by Amgen, Inc. (Thousand Oaks, Calif.). This G-CSF administration continued until the absolute granulocyte count of the patient was greater than 1500/μl for two consecutive days after the nadir (i.e., the total count for the two days was at least 3000/μl ) or until the total white blood cell count was greater than 30,000/μl. Patients with responding disease or stable disease continued on the study and were reevaluated at two cycle intervals.
Patients manifesting second or third degree heart block had remaining cycles given in the intensive care unit with appropriate interventions. Antiemetics were given as needed.
More specifically, this was undertaken by increasing the dose of G-CSF administered on the next treatment cycle.
The particulars pertaining to the flexible G-CSF dosage regimen are as follows. […] The dose of G-CSF was reduced by 5 μg/kg/day if severe bone pain occurred at these higher G-CSF dosage levels, i.e., at levels greater than or equal to 10 μg/kg/day.

[4] = in vivo
[5] = in vivo; cited from earlier work
[6] = Totals, all dose levels 170-300 mg/m^2, 14 patients assessable
[7] = Totals, all dose levels 170-300 mg/m^2, 14 patients assessable, listed as taxol
[8] = taxol 170 mg/m^2, 2 patients assessable
[9] = taxol 200 mg/m^2, 3 patients assessable
[10] = taxol 250 mg/m^2, 6 patients assessable
[11] = taxol 300 mg/m^2, 3 patients assessable
[12] = female, human, in vivo, 1 cycle
[13] = female, human, in vivo, 21 days (per cycle)

## CC(=O)O[C@H]1C(=O)[C@@]2(C)[C@H]([C@H](OC(=O)c3ccccc3)[C@]3(O)C[C@H](OC(=O)[C@H](O)[C@@H](NC(=O)c4ccccc4)c4ccccc4)C(C)=C1C3(C)C)[C@]1(OC(C)=O)CO[C@@H]1C[C@@H]2O [Taxol, taxol]
[1]; Five of 14 assessable patients, all dose levels
  Patients with an objective response to therapy: 36%
[1]; [6]
  No. CCR (clinical complete response): 1
  No. MR (minor response): 5
  No. NR (no response; progressive disease on therapy): 4
  No. PR (partial response): 4
[1]; [7]
  No. CCR (clinical complete response): one
  No. MR (minor response): Five
  No. NR (no response; progressive disease on therapy): Four
  No. PR (partial response): four
[1]; five patients
  Reductions in tumor mass in patients with a minor response: 30% to 46%
[1]; phase I, individual PR patients
  Response durations for PR: 30 weeks and ≥ 25 weeks and ≥ 23 weeks and 11 weeks
[1]; phase I, the one CCR patient
  Response duration for CCR: ≥ 30 weeks
[1]; [8]
  No. NR (no response): 1
  No. PR (partial response): 1
[1]; [9]
  No. CCR (clinical complete response): 1
  No. MR (minor response): 1
  No. NR (no response): 1
[1]; [10]
  No. MR (minor response): 3
  No. NR (no response): 2
  No. PR (partial response): 2
[1]; [11]
  No. MR (minor response): 1
  No. PR (partial response): 2
[2]
  Response rate, three combined studies: 30%
[3]; female, human, in vivo
  Alopecia, Grade 1 & 2: 38 No. (%)
  Bone Pain, Grade 3 & 4: 3 (6) No. (%)
  Cardiac toxicity, Grade 1 & 2: 35 (74) No. (%)
  Constitutional toxicity, Grade 1 & 2: 43 No. (%)
  Constitutional toxicity, Grade 3 & 4: 4 (9) No. (%)
  Diarrhea, Grade 1 & 2: 29 No. (%)
  Diarrhea, Grade 3 & 4: 2 (4) No. (%)
  Hematologic toxicity, Anemia, Grade 1 & 2: 17 (47) No. (%)
  Hematologic toxicity, Anemia, Grade 3 & 4: 30 (47) No. (%)
  Hematologic toxicity, Granulocytes, Grade 1 & 2: 1 (2) No. (%)
  Hematologic toxicity, Granulocytes, Grade 3 & 4: 46 (98) No. (%)
  Hematologic toxicity, Platelets, Grade 1 & 2: 24 (51) No. (%)
  Hematologic toxicity, Platelets, Grade 3 & 4: 19 (40) No. (%)
  Hypersensitivity Reactions, Grade 1 & 2: 31 (66) No. (%)
  Hypersensitivity Reactions, Grade 3 & 4: 2 (4) No. (%)
  Median time of neutrophil nadir: 7 days
  Mucositis, Grade 1 & 2: 31 (66) No. (%)
  Mucositis, Grade 3 & 4: 3 (6) No. (%)
  Myalgias, Grade 1 & 2: 43 No. (%)
  Neurologic toxicity, Grade 1 & 2: 36 (77) No. (%)
  Neurologic toxicity, Grade 3 & 4: 3 (6) No. (%)
  Patients who continued at the starting dosage combination throughout therapy: 45%
  Patients who continued on that dose combination: 12 patients
  Patients who required red blood cell transfusions: 55%
  Patients with Mobitz I block: 4%
  Patients with Mobitz II block: 4%
  Patients with dose reduction for taxol-induced peripheral neuropathy: 3 patients
  Patients with first degree atrioventricular block: 4%
  Patients with grade 3 and 4 hematologic toxicities: 98%
  Patients with mild ototoxicity: 11%
  Patients with myalgias and arthralgias (grades 1 and 2): less than 50%
  Time of neutrophil nadir, range: 5 to 11 days
  Vomiting, Grade 1 & 2: 23 No. (%)
[3]; [12]
  Median nadir heart rate: 52 bpm
  Nadir heart rate, range: 38-59 bpm
  Patients with asymptomatic sinus bradycardia: 34%
[3]; [13]
  Cycles associated with neutropenia: 24%
  Cycles complicated by fever and neutropenia: 10%
[3]; in vivo
  Episodes of complete heart block: No episodes
  Patients with hypersensitivity reactions: Two
  Patients with rapid atrial fibrillation requiring digitalization: one
  Patients with supraventricular tachycardia: two
[3]; one of 47 patients
  Treatment related death due to polymicrobial sepsis: 2%
[4]; female, human
  Dose at which dose limiting toxicity (DLT) was reached: 300 mg/m2/21 days
  Duration of granulocytopenia occurring in spite of G-CSF support: less than 5 days
  Persistence of neurologic symptoms beyond the peak: 1 to 2 weeks
  Persistence of symptoms of grade 3 neuropathy: up to 6 months
  Time of nadir heart rate into therapy, range: 1 to 21 h
[4]; female, human, 1 cycle
  Mean nadir heart rate (±SEM): 60±11 bpm
  Nadir heart rate, range: 46-84 bpm
  Number of individuals whose heart rate fell below 60 bpm: 10
[4]; female, human, 2 cycle
  Mean nadir heart rate: 61±8 bpm
  Nadir heart rate, range: 46-75 bpm
  Number of individuals whose heart rate fell below 60 bpm: 6
[4]
  Alopecia and grade 1 to 2 myalgias observed: all patients
  Patients in whom mucositis was observed: two
  Patients with peripheral neuropathy of grade 3: three
[5]
  Taxol dosage level above which severe neurotoxicity (peripheral neuropathy) is experienced: above 300 mg/m^2/ 21 days
